The subject of this assay is BDF1 mice, Lewis lung carcinoma iv, survival T/C. The assay is described as follows: NCI In Vivo Anticancer Drug Screen. Data for tumor model Lewis Lung Carcinoma (intravenous) in B6D2F1 (BDF1) mice. The settings on record: endpoint: median survival time, higher = longer survival. As to the method:
The antitumor activity of compounds was measured in mice bearing transplantable tumors. Survival or tumor size were measured and the results are expressed as the measurement made in the treated group (T) divided by the measurement made in the vehicle treated control group (C). The tumor model used in this assay is Lewis Lung Carcinoma (intravenous) in B6D2F1 (BDF1) mice

The mark [1] stands for this setting: dose: 12.5 mg/kg/injection, schedule: Q01DX009 (ip), vehicle: Klucel (hydroxypropylcellulose) (HPC).
Where [2] appears, read: dose: 25.0 mg/kg/injection, schedule: Q01DX009 (ip), vehicle: Klucel (hydroxypropylcellulose) (HPC).
Where [3] appears, read: dose: 25.0 mg/kg/injection, schedule: Q01DX009 (ip), vehicle: saline with Tween-80.
The mark [4] stands for this setting: dose: 50.0 mg/kg/injection, schedule: Q01DX009 (ip), vehicle: saline with Tween-80.
Setting [5] is: dose: 100.0 mg/kg/injection, schedule: Q01DX009 (ip), vehicle: saline with Tween-80.
The mark [6] stands for this setting: dose: 200.0 mg/kg/injection, schedule: Q01DX009 (ip), vehicle: saline with Tween-80.
The mark [7] stands for this setting: dose: 50.0 mg/kg/injection, schedule: Q01DX009 (ip), vehicle: Klucel (hydroxypropylcellulose) (HPC).
The mark [8] stands for this setting: dose: 100.0 mg/kg/injection, schedule: Q01DX009 (ip), vehicle: Klucel (hydroxypropylcellulose) (HPC).
Where [9] appears, read: dose: 6.25 mg/kg/injection, schedule: Q01DX009 (ip), vehicle: distilled water + Tween-80.
[10] abbreviates: dose: 12.5 mg/kg/injection, schedule: Q01DX009 (ip), vehicle: distilled water + Tween-80.
The mark [11] stands for this setting: dose: 50.0 mg/kg/injection, schedule: Q01DX009 (ip), vehicle: distilled water + Tween-80.
The mark [12] stands for this setting: dose: 200.0 mg/kg/injection, schedule: Q01DX009 (ip), vehicle: Klucel (hydroxypropylcellulose) (HPC).
Where [13] appears, read: dose: 6.25 mg/kg/injection, schedule: Q01DX009 (ip), vehicle: saline with Tween-80.
Setting [14] is: dose: 12.5 mg/kg/injection, schedule: Q01DX009 (ip), vehicle: saline with Tween-80.
Where [15] appears, read: dose: 12.5 mg/kg/injection, schedule: Q01DX009 (ip), vehicle: saline.
[16] abbreviates: dose: 25.0 mg/kg/injection, schedule: Q01DX009 (ip), vehicle: saline.
The mark [17] stands for this setting: dose: 50.0 mg/kg/injection, schedule: Q01DX009 (ip), vehicle: saline.
The mark [18] stands for this setting: dose: 100.0 mg/kg/injection, schedule: Q01DX009 (ip), vehicle: saline.

Values joined by “and” are separate entries in the source; they are usually repeats but may differ in a detail not shown here. Identical values can stand only once. Inconclusive results and toxic doses are left out.

Take `COc1ccc2[nH]c3ccc4cc[n+](CCN5CCC(C6CCN(CC[n+]7ccc8ccc9[nH]c%10ccc(OC)cc%10c9c8c7)CC6)CC5)cc4c3c2c1`: the T/C runs as follows: under setting [1], 98 % of control; under setting [2], 114 % of control.

On to `COc1ccc2nonc2c1`, for which the T/C runs as follows: under setting [3], 191 % of control; under setting [4], 109 % of control; under setting [5], 101 % of control; under setting [6], 103 % of control.

Take `Nc1ncnc2c1ncn2C1OC(CO)C(O)C1O` (centres undefined): the T/C (dose: 32.0 mg/kg/injection, schedule: Q01DX009 (ip), vehicle: Klucel (hydroxypropylcellulose) (HPC)) was 101 % of control; the T/C (dose: 64.0 mg/kg/injection, schedule: Q01DX009 (ip), vehicle: Klucel (hydroxypropylcellulose) (HPC)) was 108 % of control; the T/C (dose: 128.0 mg/kg/injection, schedule: Q01DX009 (ip), vehicle: Klucel (hydroxypropylcellulose) (HPC)) was 97 % of control; the T/C (dose: 256.0 mg/kg/injection, schedule: Q01DX009 (ip), vehicle: Klucel (hydroxypropylcellulose) (HPC)) is 106 % of control; the T/C (dose: 512.0 mg/kg/injection, schedule: Q01DX009 (ip), vehicle: Klucel (hydroxypropylcellulose) (HPC)) was 87 % of control.

For `COc1ccc2[nH]c3c(c2c1)CCNC3CC(C)CCC=C(C)C` (centres undefined), the T/C is 116 % of control (dose: 6.25 mg/kg/injection, schedule: Q01DX009 (ip), vehicle: Klucel (hydroxypropylcellulose) (HPC)); 98 % of control under setting [1]; 102 % of control under setting [2]; 95 % of control under setting [7]; 107 % of control under setting [8].

As to `Nc1cc(Cl)c2[nH]cnc2n1`, the T/C by setting is: under setting [9], 106 % of control; under setting [10], 98 % of control; (dose: 25.0 mg/kg/injection, schedule: Q01DX009 (ip), vehicle: distilled water + Tween-80) 109 % of control; under setting [11], 113 % of control; (dose: 100.0 mg/kg/injection, schedule: Q01DX009 (ip), vehicle: distilled water + Tween-80) 107 % of control.

As for `Cc1ncc([N+](=O)[O-])n1CCO`, the T/C is, setting by setting: (dose: 18.75 mg/kg/injection, schedule: Q01DX009 (ip), vehicle: Klucel (hydroxypropylcellulose) (HPC)) 93 % of control; (dose: 37.5 mg/kg/injection, schedule: Q01DX009 (ip), vehicle: Klucel (hydroxypropylcellulose) (HPC)) 100 % of control; (dose: 75.0 mg/kg/injection, schedule: Q01DX009 (ip), vehicle: Klucel (hydroxypropylcellulose) (HPC)) 95 % of control; (dose: 150.0 mg/kg/injection, schedule: Q01DX009 (ip), vehicle: Klucel (hydroxypropylcellulose) (HPC)) 100 % of control; (dose: 300.0 mg/kg/injection, schedule: Q01DX009 (ip), vehicle: Klucel (hydroxypropylcellulose) (HPC)) 91 % of control; (dose: 600.0 mg/kg/injection, schedule: Q01DX009 (ip), vehicle: Klucel (hydroxypropylcellulose) (HPC)) 102 % of control.

On to `CC(C)(C)C1CCCCC1`, for which the T/C by setting is: under setting [1], 94 % of control; under setting [2], 98 % of control; under setting [7], 95 % of control; under setting [8], 102 % of control; under setting [12], 95 % of control.

For the compound `CN(Cc1cnc2nc(N)nc(N)c2n1)c1c(Cl)cc(C(=O)NC(CCC(=O)O)C(=O)O)cc1Cl` (centres undefined), the T/C reads like this: under setting [1], 96 % of control; under setting [2], 93 % of control; under setting [7], 98 % of control.

`OCC1OC(n2cnc3cc(Cl)c(Cl)cc32)C(O)C1O` (centres undefined): the T/C under setting [13] is 96 % of control; the T/C under setting [14] is 94 % of control; the T/C under setting [3] is 110 % of control; the T/C under setting [4] was 110 % of control; the T/C under setting [5] is 100 % of control; the T/C under setting [6] is 90 % of control.

Take `O=[N+]([O-])c1ccc(-n2[nH]nnc2=S)cc1`: the T/C under setting [14] was 92 % of control; the T/C under setting [3] is 101 % of control; the T/C under setting [4] is 92 % of control; the T/C under setting [5] is 92 % of control; the T/C under setting [6] is 93 % of control.

Take `OCCCN1CCCCC1CO` (centres undefined): the T/C reads like this: under setting [15], 100 % of control and 107 % of control; under setting [16], 98 % of control and 110 % of control; under setting [17], 97 % of control and 90 % of control; under setting [18], 91 % of control and 106 % of control; (dose: 200.0 mg/kg/injection, schedule: Q01DX009 (ip), vehicle: saline) 100 % of control and 107 % of control; (dose: 400.0 mg/kg/injection, schedule: Q01DX009 (ip), vehicle: saline) 95 % of control and 110 % of control.

Turning to `Nc1ncnc2c1cnn2Cc1ccc(Cl)cc1`, the T/C runs as follows: under setting [16], 112 % of control; under setting [17], 98 % of control; under setting [5], 158 % of control; under setting [18], 98 % of control; under setting [6], 109 % of control.

Turning to `COC(=O)c1cc2cc3c(c(O)c2c(=O)o1)OC1(Cc2c(O)c4c(c(O)c2O1)C(=O)C(OC)CC4=O)CC3O` (centres undefined), the T/C was 102 % of control (dose: 3.13 mg/kg/injection, schedule: Q01DX009 (ip), vehicle: saline with Tween-80); 110 % of control under setting [13]; 122 % of control under setting [14]; 120 % of control under setting [3].

Consider `CC(C)NC(=O)OCc1c(COC(=O)NC(C)C)c(-c2ccc(Cl)c(Cl)c2)n2c1CCC2`, for which the T/C (dose: 1.56 mg/kg/injection, schedule: Q01DX009 (ip), vehicle: distilled water + Tween-80) is 108 % of control; the T/C (dose: 3.13 mg/kg/injection, schedule: Q01DX009 (ip), vehicle: distilled water + Tween-80) is 97 % of control; the T/C under setting [9] was 101 % of control; the T/C under setting [10] was 119 % of control; the T/C under setting [11] was 109 % of control.

Consider `C[C@]12CC[C@H]3[C@@H](CC[C@]4(O)C[C@@H](O)CC[C@]34C=O)[C@@]1(O)CC[C@@H]2C1=CC(=O)OC1`, for which the T/C is, setting by setting: under setting [15], 96 % of control; under setting [16], 108 % of control; under setting [17], 108 % of control; under setting [18], 100 % of control.

Consider `C=C(C)C(=O)OCC1CO1` (centres undefined), for which the T/C is 88 % of control under setting [7] and 105 % of control under setting [8].

As to `CN(C)c1nc(N(C)C)nc(N(C)C)n1`, the T/C runs as follows: under setting [4], 99 % of control; (dose: 59.0 mg/kg/injection, schedule: Q04DX003 (ip), vehicle: saline) 102 % of control; (dose: 88.0 mg/kg/injection, schedule: Q04DX003 (ip), vehicle: saline) 97 % of control; under setting [5], 154 % of control; (dose: 133.0 mg/kg/injection, schedule: Q04DX003 (ip), vehicle: Klucel (hydroxypropylcellulose) (HPC)) 90 % of control; (dose: 133.0 mg/kg/injection, schedule: Q04DX003 (ip), vehicle: saline) 101 % of control and 109 % of control. In addition, the T/C under setting [6] is 92 % of control; the T/C (dose: 200.0 mg/kg/injection, schedule: Q04DX003 (ip), vehicle: Klucel (hydroxypropylcellulose) (HPC)) is 114 % of control; the T/C (dose: 200.0 mg/kg/injection, schedule: Q04DX003 (ip), vehicle: saline) was 96 % of control and 105 % of control; the T/C (dose: 300.0 mg/kg/injection, schedule: Q04DX003 (ip), vehicle: saline) was 95 % of control and 105 % of control; the T/C (dose: 450.0 mg/kg/injection, schedule: Q04DX003 (ip), vehicle: saline) was 104 % of control; the T/C (dose: 675.0 mg/kg/injection, schedule: Q04DX003 (ip), vehicle: saline) was 105 % of control.

Consider `O=C(O)CC(NC(=O)CP(=O)(O)O)C(=O)O` (centres undefined), for which the T/C is, setting by setting: (dose: 490.0 mg/kg/injection, schedule: Q04DX003 (ip), vehicle: saline) 165 % of control; (dose: 700.0 mg/kg/injection, schedule: Q04DX003 (ip), vehicle: saline) 100 % of control.

Turning to `CC1CCC(n2cnc3c(Cl)ncnc32)O1` (centres undefined), the T/C is 100 % of control (dose: 12.0 mg/kg/injection, schedule: Q01DX009 (ip), vehicle: Klucel (hydroxypropylcellulose) (HPC)); 109 % of control under setting [2]; 98 % of control under setting [7]; 104 % of control under setting [8]; 96 % of control under setting [12].

Turning to `Nc1nnc[se]1`, the T/C by setting is: (dose: 3.12 mg/kg/injection, schedule: Q01DX009 (ip), vehicle: saline with Tween-80) 103 % of control; under setting [13], 111 % of control; under setting [3], 118 % of control.

The record behind these values is PubChem BioAssay AID274 (DTP/NCI, 2004).
